Experimental data as given in paper PMC9116648, “Synthesis and biological evaluation of thiazolidine-2-thione derivatives as novel xanthine oxidase inhibitors” (PLoS ONE, 2022).
“Also recorded” adds a separate entry of the source. Read-outs that look alike come from different tables or passages of the source.

Experiments:
Xanthine oxidase (XO) [1] = biological target: T1, Xanthine oxidase (XO) (Homo sapiens, UniProt P47989); experiment: In vitro XO inhibitory potency (enzyme catalysis reaction, OD 295 nm); format: biochemical
Experimental: XO inhibitory activity was measured by enzyme catalysis reaction in vitro, with modifications. The XO solution (100 U/L) and xanthine solution (0.5 mmol/L) were prepared in PBS (10 mmol/L, pH = 7.4) and stored at 4°C. The test compounds were diluted to different concentrations with PBS. The enzyme catalysis reaction was performed in 96-well plates.

Xanthine oxidase (XO) [2] = biological target: T1, Xanthine oxidase (XO); experiment: Enzyme inhibitory kinetics (Lineweaver-Burk plots); format: biochemical
Experimental: The inhibitory mode of representative compound 6k was further investigated using enzyme inhibitory kinetic studies. XO solution (55 U/L) was mixed respectively with compound 6k (0, 5, 10, and 20 μmol/L) and incubated at 37°C for 5 min. Then, xanthine solution (0.25, 0.5, 1.0, and 2.0 mmol/L) were added to initiate the reaction at 37°C for 30 min. The reaction was carried out in a 96-well plate and the OD value were read using a microplate reader at 295 nm. The obtained data were analyzed using Microsoft Excel 2013 and transformed into Lineweaver-Burk plots using GraphPad Prism 7.0. In addition, the value of Ki and Kis could be calculated using GraphPad Prism 7.0.

Xanthine oxidase (XO) [3] = biological target: T1, Xanthine oxidase (XO); settings: literature statement; cited from earlier work
[4] = S1 Table, mean of three determinations, unit inferred, read-out: IC50 mean
[5] = S1 Table, single determination 1 of 3, unit inferred, read-out: IC50 (first replicate column)
[6] = S1 Table, single determination 2 of 3, unit inferred, read-out: IC50 (second replicate column)
[7] = S1 Table, single determination 3 of 3, unit inferred, read-out: IC50 (third replicate column)
[8] = mean±SD, tested in triplicate, xanthine substrate, 37°C, PBS pH 7.4, read-out: IC50

T1 sequence (P47989 whole entry, species assumed): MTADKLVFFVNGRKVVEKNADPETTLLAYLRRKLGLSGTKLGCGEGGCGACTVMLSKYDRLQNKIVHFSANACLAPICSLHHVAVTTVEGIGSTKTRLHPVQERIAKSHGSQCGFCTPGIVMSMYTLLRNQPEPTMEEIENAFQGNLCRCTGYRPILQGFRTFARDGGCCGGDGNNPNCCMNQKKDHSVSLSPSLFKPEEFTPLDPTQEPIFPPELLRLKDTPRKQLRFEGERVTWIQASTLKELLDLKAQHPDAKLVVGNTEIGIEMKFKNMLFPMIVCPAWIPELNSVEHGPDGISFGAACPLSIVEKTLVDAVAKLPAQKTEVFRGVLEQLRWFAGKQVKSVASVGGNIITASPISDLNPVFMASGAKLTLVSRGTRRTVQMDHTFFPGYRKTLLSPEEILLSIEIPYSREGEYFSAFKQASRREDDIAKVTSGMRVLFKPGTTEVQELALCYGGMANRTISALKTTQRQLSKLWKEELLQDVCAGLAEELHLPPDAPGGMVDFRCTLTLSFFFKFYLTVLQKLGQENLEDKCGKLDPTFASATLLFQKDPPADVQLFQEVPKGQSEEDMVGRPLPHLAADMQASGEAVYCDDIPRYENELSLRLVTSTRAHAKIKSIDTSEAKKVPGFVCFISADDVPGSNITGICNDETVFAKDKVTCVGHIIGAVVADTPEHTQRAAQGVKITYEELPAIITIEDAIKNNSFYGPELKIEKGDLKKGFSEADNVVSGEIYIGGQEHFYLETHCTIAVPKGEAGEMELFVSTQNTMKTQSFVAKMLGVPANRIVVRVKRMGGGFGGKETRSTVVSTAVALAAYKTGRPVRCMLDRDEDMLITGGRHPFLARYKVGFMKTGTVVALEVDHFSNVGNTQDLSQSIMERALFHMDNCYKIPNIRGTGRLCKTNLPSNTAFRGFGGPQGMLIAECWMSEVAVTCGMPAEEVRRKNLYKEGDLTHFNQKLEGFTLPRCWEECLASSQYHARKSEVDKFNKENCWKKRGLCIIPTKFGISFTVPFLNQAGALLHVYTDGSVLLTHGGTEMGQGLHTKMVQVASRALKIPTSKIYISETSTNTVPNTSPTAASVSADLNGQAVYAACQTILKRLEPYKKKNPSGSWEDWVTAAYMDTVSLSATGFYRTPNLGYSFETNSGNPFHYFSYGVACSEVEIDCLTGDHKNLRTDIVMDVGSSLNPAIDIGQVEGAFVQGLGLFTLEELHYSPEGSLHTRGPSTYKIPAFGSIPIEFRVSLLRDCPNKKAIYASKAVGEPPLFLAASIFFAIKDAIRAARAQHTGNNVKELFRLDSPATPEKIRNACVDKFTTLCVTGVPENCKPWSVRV

SMILES | IC50 (Xanthine oxidase (XO) [1]; [4]) [µM] | IC50 (Xanthine oxidase (XO) [1]; [5]) [µM] | IC50 (Xanthine oxidase (XO) [1]; [6]) [µM] | IC50 (Xanthine oxidase (XO) [1]; [7]) [µM] | IC50 (Xanthine oxidase (XO) [1]; [8]) [µM] | melting point [°C] | also measured
O=C(NCc1ccccc1)N1CCSC1=S [Compound 6f, N-benzyl-2-thioxothiazolidine-3-carboxamide] | 12.8 | 12.8 | 14.8 | 10.8 | 12.8 ± 1.6 | 107 to 109 | –
O=C(NS(=O)(=O)c1ccccc1)N1CCSC1=S [Compound 6i, N-(phenylsulfonyl)-2-thioxothiazolidine-3-carboxamide] | 5.19 | 5.19 | 4.02 | 6.35 | 5.19 ± 0.95 | 121 to 123 | –
CCN1CCSC1=S [Compound 4a, 3-ethyl-thiazolidine-2-thione] | 43.5 | 43.4 | 40.9 | 46.3 | 43.5 ± 2.18 | – | –
Cc1ccc(S(=O)(=O)NC(=O)N2CCSC2=S)cc1 [Compound 6j, N-((4-methylphenyl)sulfonyl)-2-thioxothiazolidine-3-carboxamide] | 9.76 | 11.5 | 8.48 | 9.27 | 9.76 ± 1.29 | 127 to 129 | –
O=C(NS(=O)(=O)c1ccc(F)cc1)N1CCSC1=S [Compound 6k, N-((4-fluorophenyl)sulfonyl)-2-thioxothiazolidine-3-carboxamide] | 3.56 | 3.19 | 4.42 | 3.06 | 3.56 ± 0.61 | – | XO inhibitory potency relative to allopurinol (fold more potent) (Xanthine oxidase (XO) [1]; ratio of IC50 values vs allopurinol): approximately 2.5 fold; Mode of XO inhibition (Xanthine oxidase (XO) [2]; Lineweaver-Burk plots): mixed-type XO inhibition; also recorded: mixed competitive inhibition; also recorded: mixed-type XO inhibitor; Intercept of Lineweaver-Burk plot (Xanthine oxidase (XO) [2]; compound 6k 5 µmol/L): 1.487; Slope of Lineweaver-Burk plot (Xanthine oxidase (XO) [2]; compound 6k 5 µmol/L): 3.559; Intercept of Lineweaver-Burk plot (Xanthine oxidase (XO) [2]; compound 6k 10 µmol/L): 2.126; Slope of Lineweaver-Burk plot (Xanthine oxidase (XO) [2]; compound 6k 10 µmol/L): 4.587; Intercept of Lineweaver-Burk plot (Xanthine oxidase (XO) [2]; compound 6k 20 µmol/L): 2.357; Slope of Lineweaver-Burk plot (Xanthine oxidase (XO) [2]; compound 6k 20 µmol/L): 6.098; Ki (Xanthine oxidase (XO) [2]; from secondary plot of Lineweaver-Burk slopes, XO 55 U/L): 7.08 µM
O=C(Nc1cccnc1)N1CCSC1=S [Compound 6g, N-(pyridin-3-yl)-2-thioxothiazolidine-3-carboxamide] | 14.5 | 17.7 | 15.1 | 10.7 | 14.5 ± 2.9 | 111 to 113 | –
CCCNC(=O)N1CCSC1=S [Compound 6b, N-propyl-2-thioxothiazolidine-3-carboxamide] | 27.8 | 27.2 | 27.6 | 28.6 | 27.8 ± 0.63 | – | –
S=C1SCCN1Cc1ccccc1 [Compound 4d, 3-benzyl-thiazolidine-2-thione] | 114 | 122 | 109 | 110 | > 100 | 115 to 117 | –
CCCCNC(=O)N1CCSC1=S [Compound 6c, N-butyl-2-thioxothiazolidine-3-carboxamide] | 30.5 | 30.1 | 33.5 | 28 | 30.5 ± 2.25 | – | –
CCCN1CCSC1=S [Compound 4b, 3-propyl-thiazolidine-2-thione] | 58.2 | 50.5 | 57.2 | 66.8 | 58.2 ± 6.71 | – | –
Oc1ncnc2[nH]ncc12 [Allopurinol] | – | – | – | – | – | – | Mode of XO inhibition (Xanthine oxidase (XO) [3]): competitive inhibition
SC1=NCCS1 [Compound 3, thiazolidine-2-thione] | 72.2 | 74.1 | 72.3 | 70.1 | 72.2 ± 1.66 | – | –
S=C1SCCN1c1ccccc1 [Compound 4c, 3-phenyl-thiazolidine-2-thione] | 51.6 | 49.4 | 52.2 | 53.3 | 51.6 ± 1.64 | – | –
O=C(NC1CCCCC1)N1CCSC1=S [Compound 6h, N-cyclohexyl-2-thioxothiazolidine-3-carboxamide] | 9.87 | 8.25 | 11.1 | 10.3 | 9.87 ± 1.19 | 114 to 115 | –
CCNC(=O)N1CCSC1=S [Compound 6a, N-ethyl-2-thioxothiazolidine-3-carboxamide] | 22.9 | 19.9 | 23.5 | 25.3 | 22.9 ± 2.24 | – | –
CC(C)CNC(=O)N1CCSC1=S [Compound 6d, N-isobutyl-2-thioxothiazolidine-3-carboxamide] | 19 | 21 | 17.7 | 18.4 | 19 ± 1.44 | – | –
O=C(Nc1ccccc1)N1CCSC1=S [Compound 6e, N-phenyl-2-thioxothiazolidine-3-carboxamide] | 10.2 | 10.6 | 8.38 | 11.7 | 10.2 ± 1.37 | 101 to 102 | –
Cc1nc(-c2ccc(OCC(C)C)c(C#N)c2)sc1C(=O)O [Febuxostat, reference compound] | – | – | – | – | – | – | IC50 (Xanthine oxidase (XO) [1]; IC50 (first replicate column), S1 Table, single determination 1 of 3, unit inferred): 3.02 µM; IC50 (Xanthine oxidase (XO) [1]; IC50 (second replicate column), S1 Table, single determination 2 of 3, unit inferred): 2.91 µM; IC50 (Xanthine oxidase (XO) [1]; IC50 (third replicate column), S1 Table, single determination 3 of 3, unit inferred): 4.08 µM; IC50 (Xanthine oxidase (XO) [1]; IC50, mean±SD, tested in triplicate, xanthine substrate, 37°C, PBS pH 7.4): 3.34 ± 0.53 µM; IC50 (Xanthine oxidase (XO) [1]; IC50 mean, S1 Table, mean of three determinations, unit inferred): 3.34 µM
